Tests used:
[1] = system: 131 strains of Lactobacillus rhamnosus; assay: Broth micro dilution test, MIC distribution; type: cell-based; details: 131 L. rhamnosus strains, LSM broth, 37° C.
Method: (§1) The inocula of 131 strains of Lactobacillus rhamnosus species are prepared by suspending several freshly cultivated single colonies in a tube with 5 ml of saline up to an optical density of McFarland standard No. 0.5. The corresponding colonies are picked up from MRS (de Man, Rogosa, Sharpe) agar plates on which the strains grew for 48 h at 37° C. and at 5% CO2 atmosphere. Subsequently, this suspension is diluted 1:10 by transferring 4 ml of the McFarland No. 0.5 suspension into a suitable inoculum container with 36 ml of saline and subsequent careful mixing. The MIC microtiter test plates (95 wels with different concentrations of the test antibiotics and one wel for the growth control without any antibiotic) were prepared before. Nutrient medium: LSM (lactobacilli susceptibility test medium) broth consisting of 90% Iso-sensitest broth plus 10% MRS broth (pH 6.7). The inoculations of the pre-made MIC test plates are performed by a multipoint inoculator (final inoculum of these LAB in the microtiter plate: about 10^5 bacteria ml^−1). The plates are subsequently incubated in ambient air or in a 5% CO2 atmosphere at 37° C. for 24 (−48) h. Then the MICs are read as the lowest concentration in the increasing concentration row of the corresponding antibiotic in which no growth of the test organism was observed. The control attempt (without antibiotic) of the corresponding strain tested has to show sufficient growth.

[2] = system: L. rhamnosus GG (ATCC 53103); assay: MIC by serial dilution of antibiotics in MRS broth; type: cell-based, Lactobacillus rhamnosus; details: 24 hours at 37° C.
Method: (§2) The Minimal inhibitory concentration (MIC) was determined by serial dilution of the tested antibiotics in MRS broth (Oxoid) and inoculate the broth with the probiotic strain to be tested.
(§3) Strains of Lactobacilli were cultured for 24 hours in MRS-broth at 37° C. and under aerobic conditions. A dilution series of the 24 hours-culture in MRS-broth was prepared (dilution factor 10, from 10^−1 to 1^−10). The dilution series were cultured overnight (i.e. 16 h) at 37° C. under aerobic conditions. The highest dilution in which still growth was observed was selected to inoculate a 96-wells plate. The culture was centrifuge for 10 min at 3800 rpm and 4° C. and resuspended in the same volume of PBS (4° C.). The Lactobacilli were counted under a microscope and the solution was diluted in cold PBS to obtain a concentration of 1*10^8 cells/ml.
(§4) Wells of a 96-wells plate were filled with MRS broth and with antibiotics in varying dilution to a total volume of 95 μl. As a control, no antibiotics were added. The following final dilutions of antibiotics were tested:
(§5) bacitracin, colistin, nystatin, polymixin B, vancomycin: 1000, 500, 250, 125, 62.5 ug/ml erythromycin, kanamycin, neomycm: 100, 50, 25, 12.5, 6.25 ug/ml ampicillin, chloramphenicol, lincomycin, penicillin, streptomycin, tetracyclin: 10, 5, 2.5, 1.25, 0.625 ug/ml
(§6) The plates were incubated for 24 hours at 37° C. in a SpectaMAX plate reader (shaking every 10 minutes for 20 seconds) and the optical density was determined at 600 nm.

L. rhamnosus LMG P-22799 = assay: MIC by serial dilution of antibiotics in MRS broth; type: cell-based, Lactobacillus rhamnosus; details: 24 hours at 37° C.
Method: as §2, §3, §4, §5, §6

[3] = system: our preferred Lb. rhamnosus (LMG P-22799); assay: Broth micro dilution test, MIC; type: cell-based, Lactobacillus rhamnosus
Method: as §1
(§7) In a large study comprising 131 different Lb. rhamosus strains the sensitivity for antibiotics was tested. In table 6 the number of strains falling within a certain dilution factor are shown. Clearly there are large differences in antibiotic sensitivity within the Lb. rhamnosus group. The more sensitive to these antibiotics, the better and together with the other parameters, such as the inhibition of adhesion of pathogens to intestinal epithelial cells is used to select the most appropriate Lb. rhamnosus. […]

Lb. rhamnosus GG = assay: Broth micro dilution test, MIC; type: cell-based, Lactobacillus rhamnosus; details: Lacticaseibacillus rhamnosus, unit from Table 6, read-out: MIC against Lb. rhamnosus GG
Method: as §1, §7

| Molecule | Number of strains with a MIC of 0.5 μg/ml [1] | Number of strains with a MIC of 1.0 μg/ml [1] | Number of strains with a MIC of 2.0 μg/ml [1] | Number of strains with a MIC of 4.0 μg/ml [1] | Antibiotic sensitivity (expressed as MIC) of L. rhamnosus GG (ATTC 53103) [2] [µg/mL] | Antibiotic sensitivity (expressed as MIC) of L. rhamnosus LMG P-22799 (L. rhamnosus LMG P-22799) [µg/mL] | further results |
| --- | --- | --- | --- | --- | --- | --- | --- |
| O=C(N[C@H](CO)[C@H](O)c1ccc([N+](=O)[O-])cc1)C(Cl)Cl [CMP] | 1 | 10 | 88 | 31 | – | – | Number of strains with a MIC of 8.0 μg/ml [1]: 1 |
| CC[C@H]1OC(=O)[C@H](C)[C@@H](O[C@H]2C[C@@](C)(OC)[C@@H](O)[C@H](C)O2)[C@H](C)[C@@H](O[C@@H]2O[C@H](C)C[C@H](N(C)C)[C@H]2O)[C@](C)(O)C[C@@H](C)C(=O)[C@H](C)[C@@H](O)[C@]1(C)O [Erythromycin, erythromycin] | – | – | – | – | >100 | 50 | – |
| CN(C)[C@@H]1C(=O)C(C(N)=O)=C(O)[C@@]2(O)C(=O)C3=C(O)c4c(O)cccc4[C@@](C)(O)[C@H]3C[C@@H]12 [Tetracyclin, tetracyclin] | – | – | – | – | 10 | 2.5 | – |
| penicillin | 28 | 11 | 7 | – | – | – | Number of strains with a MIC of 0.125 μg/ml [1]: 9; Number of strains with a MIC of 0.25 μg/ml [1]: 76 |

Continued, in another order:

| Number of strains with a MIC of 0.5 μg/ml [1] | Number of strains with a MIC of 1.0 μg/ml [1] | Number of strains with a MIC of 2.0 μg/ml [1] | Number of strains with a MIC of 4.0 μg/ml [1] | Antibiotic sensitivity (expressed as MIC) of L. rhamnosus GG (ATTC 53103) [2] [µg/mL] | Antibiotic sensitivity (expressed as MIC) of L. rhamnosus LMG P-22799 (L. rhamnosus LMG P-22799) [µg/mL] | Molecule | further results |
| --- | --- | --- | --- | --- | --- | --- | --- |
| 52 | 62 | 12 | 2 | >10 | 2.5 | CC1(C)S[C@@H]2[C@H](NC(=O)[C@H](N)c3ccccc3)C(=O)N2[C@H]1C(=O)O [Ampicillin, ampicillin] | Number of strains with a MIC of 0.25 μg/ml [1]: 3; AMP sensitivity ratio LGG/LMG P-22799 [3]: 2-4; MIC ([3]; Lacticaseibacillus rhamnosus, unit from Table 6, read-out: MIC against our preferred Lb. rhamnosus): ≤ 0.5 µg/mL; MIC (Lb. rhamnosus GG): ≥ 1 µg/mL |
| – | – | – | – | >10 | 5 | O=C(N[C@H](CO)[C@H](O)c1ccc([N+](=O)[O-])cc1)C(Cl)Cl [Chloramphenicol, chloramphenicol] | – |
| – | – | – | – | 10 | 5 | CCC[C@@H]1C[C@@H](C(=O)N[C@@H]([C@H]2O[C@H](SC)[C@H](O)[C@@H](O)[C@H]2O)[C@@H](C)O)N(C)C1 [Lincomycin, lincomycin] | – |
| – | – | 37 | 52 | – | – | [H]/N=C(/N)N[C@H]1[C@H](O)[C@@H](O)[C@H](O[C@@H]2O[C@@H](C)[C@](O)(C=O)[C@H]2O[C@@H]2O[C@@H](CO)[C@H](O)[C@@H](O)[C@@H]2NC)[C@@H](N/C(N)=N\[H])[C@@H]1O [STR] | Number of strains with a MIC of 8.0 μg/ml [1]: 21 |
| – | – | – | – | >10 | 5 | [H]/N=C(/N)N[C@H]1[C@H](O)[C@@H](O)[C@H](O[C@@H]2O[C@@H](C)[C@](O)(C=O)[C@H]2O[C@@H]2O[C@@H](CO)[C@H](O)[C@@H](O)[C@@H]2NC)[C@@H](N/C(N)=N\[H])[C@@H]1O [Streptomycin, streptomycin] | – |

— patent US20090136468A1, “PERI-OPERATIVE COMPOSITION COMPRISING LACTOBACILLUS RHAMNOSUS” (N.V. NUTRICIA, priority 2004, published 2009)
